Assays:
Assay type in all cases: cell-based, human
Conditions in all cases: final concentration 10 μM, added days 35 to 40
[1] = tested on: motor neurons induced to differentiate from iPS cells derived from ALS patients (TDP-43-ALS) having a mutation in TDP-43; experiment: Phosphorylated TDP-43 protein inclusion formation, TDP-43-ALS motor neurons
Excerpt: Therefore, on day 40 from the start of differentiation induction, each differentiation-induced motor neuron in Example I-1 was immunostained and the formation of phosphorylated TDP-43 protein inclusions was examined.
(§1) Using the differentiation-induced motor neurons in Example I-1, drugs which cause the ALS phenotype to be restored were screened from existing drug libraries with the neurite length, ectopic localization of FUS protein, stress granule formation, LDH leakage ratio, CV-caspase 3-positive ratio, phosphorylated TDP-43 protein inclusion formation, and the like as indices.
(§2) As a result of the screening, ropinirole was found as a promising therapeutic agent for ALS. Tables 5 and 6 show the improvement ratio (%) in the ALS phenotype due to adding ropinirole to the medium. Here, ropinirole was added to the medium on days 35 to 40 from the start of the differentiation induction of each iPS cell. Here, it is assumed that days 35 to 40 from the start of differentiation induction correspond to the early stage of the ALS disease.
(§3) The improvement ratio (%) of the ALS phenotype was calculated by Equation (1).
(§4) [formula] [In Equation (1), A represents a measurement value of motor neurons induced to differentiate from iPS cells derived from ALS patients in the absence of ropinirole, and B represents a measurement value of motor neurons induced to differentiate from iPS cells derived from ALS patients in the presence of ropinirole, and C represents a measurement value of motor neurons induced to differentiate from iPS cells derived from healthy subjects in the absence of ropinirole.]
(§5) Subsequently, in the same manner as above, the efficacy in cases of administering lower concentrations of ropinirole was evaluated.
(§6) Each drug was added to the medium at a final concentration of 10 μM.

[2] = tested on: motor neurons induced to differentiate from iPS cells derived from ALS patients (TDP-43-ALS) having a mutation in TDP-43; experiment: Neurite length, TDP-43-ALS motor neurons (screening, Example I-8)
Protocol: (§7) For each differentiation-induced motor neuron in Example I-1, the changes over time in the neurite length were measured. A Bio station CT (Nikon Corp.) was used to measure the neurite length over time. FIG. 1 is a graph showing measurement results of changes over time in the neurite length. The vertical axis represents neurite length (relative value), and the horizontal axis represents the number of days of culturing from the start of differentiation induction.
as §1, §2, §3, §4, §5, §6

[3] = tested on: motor neurons induced to differentiate from iPS cells derived from ALS patients (FUS-ALS) having a mutation in FUS; experiment: Stress granule formation (G3BP immunostaining), FUS-ALS motor neurons
Protocol: On day 40 from the start of differentiation induction, the formation of stress granules was examined using each differentiation-induced motor neuron in Example I-1. The detection of stress granules was performed by immunostaining with G3BP, which is a marker of stress granules.
as §1, §2, §3, §4, §5, §6

[4] = tested on: motor neurons induced to differentiate from iPS cells derived from ALS patients (TDP-43-ALS) having a mutation in TDP-43; experiment: LDH leakage ratio, TDP-43-ALS motor neurons
Protocol: (§8) The leakage amount of LDH into the medium is an indicator of cytotoxicity. For measurement of the LDH leakage ratio, a commercially available kit (model “LDH Cytotoxicity Detection Kit”, Takara Bio Inc.) was used.
(§9) Here, ropinirole was added to the medium on days 35 to 40 from the start of the differentiation induction of each iPS cell. Here, it is assumed that days 35 to 40 from the start of differentiation induction correspond to the early stage of the ALS disease.
as §3, §4, §5, §6

[5] = tested on: motor neurons induced to differentiate from iPS cells derived from ALS patients (FUS-ALS) having a mutation in FUS; experiment: LDH leakage ratio, FUS-ALS motor neurons
Protocol: as §8, §9, §3, §4, §5, §6

[6] = tested on: motor neurons induced to differentiate from iPS cells derived from ALS patients (FUS-ALS) having a mutation in FUS; experiment: Neurite length, FUS-ALS motor neurons (screening, Example I-8)
Protocol: as §7, §1, §2, §3, §4, §5, §6

[7] = tested on: motor neurons induced to differentiate from iPS cells derived from ALS patients (FUS-ALS) having a mutation in FUS; experiment: Ectopic localization of FUS protein in the cytoplasm, FUS-ALS motor neurons
Excerpt: Therefore, on day 40 from the start of differentiation induction, each differentiation-induced motor neuron in Example I-1 was immunostained and the localization of FUS protein in the cytoplasm was examined.
as §1, §2, §3, §4, §5, §6

SMILES	TDP-43 inclusion formation improvement ratio [1]	Neurite length improvement ratio [2]	Stress granule formation improvement ratio [3]	LDH leakage ratio improvement ratio [4]	LDH leakage ratio improvement ratio [5]	Neurite length improvement ratio [6]	Ectopic localization of FUS protein improvement ratio [7]
CO/N=C(\C(=O)N[C@@H]1C(=O)N2C(C(=O)O)=C(CSc3nc(=O)c(=O)[nH]n3C)CS[C@H]12)c1csc(N)n1 [Ceftriaxone]	35.4%	20.4%	11.0%	15.1%	21.2%	36.3%	22.6%
CC1=NN(c2ccccc2)C(=O)C1 [Edaravone]	11.6%	14.2%	19.8%	23.2%	12.4%	15.9%	20.4%
